The source of these data is patent publication US8653026B2, “Treatment of type 2 diabetes with FTY720” (Diapin Therapeutics LLC, priority 2011, dated 2014).

The subject of test [1] is pancreatic cancer cells. The note with it: concentrations identical to this study (10 mg/kg), reportedly; cited from earlier work.
For test [2], the system named is Bcl-2. In words: Bcl-2 mRNA levels in islets of db/db mice. The test is classed as in vivo, mouse. The note with it: islets from FTY720-treated db/db mice vs untreated. Here is the method:
FIG. 10A. Levels of Bcl-2 mRNA levels of the db/db mice with (+FTY720) or without FTY720 (−FTY720) treatment. *p=0.0006
Islets were isolated from pancreases removed from the 13-week-old untreated and FTY720-treated db/db mice by Liberase (Roche Diagnostics) digestion, followed by discontinuous Ficoll gradient separation and manual stereomicroscopic selection to exclude contaminating tissues (30). Isolated islets (or INS-1 cells) were cultured in the medium (composed of RPMI 1640 medium supplemented with 10% fetal bovine serum, 2 mM L-glutamine, 1% sodium pyruvate, 50 μM β-mercaptoethanol, 100 units/ml of penicillin, and 100 μg/ml of streptomycin). For treatment of INS-1 cells, the cells were plated in RPMI medium overnight and changed to Hanks' balanced salt solution containing 2 mM glucose and 0.5% FBS overnight. Then the cells were treated with various conditions in the same medium for 24 hours.
To determine the mechanism of action (MOA) behind the increase in beta-cell mass observed in the treated mice, beta-cell survival was examined.

For test [3], the system named is db/db mice. In words: Intraperitoneal glucose tolerance test. The test is classed as in vivo, mouse. The note with it: db/db mice fasted 16 h, i.p. 10% glucose 1 mg/g; treated vs untreated. Here is the method: FIG. 5A. Intraperitoneal glucose tolerance test (GTT). The mice of both groups were fasted for 16 hours and intraperitoneally injected with 10% glucose (1 mg/g body weight). Glucose levels were then measured after 0, 30, 60, 90, 120 min by a Glucometer Elite (Bayer Corp., Elkhart, Ind.). Open circle (∘), FTY720-untreated group; solid circle (●), FTY720-treated group. *p<0.01.
For the glucose tolerance test, the mice were fasted for 16 h and intraperitoneally injected with 10% glucose (1 mg/g of body weight). Glucose levels were then measured after 0, 30, 60, 90, and 120 min by a Glucometer Elite (Bayer Corp., Elkhart, Ind.) (29). For the insulin tolerance test, the mice were fasted for 6 h and injected intraperitoneally with human regular insulin (0.55 units/kg) (Sigma). Tail blood samples were collected at 0, 30, 40, 60, 90, and 120 min for glucose measurement (30, 31).

As for `CCCCCCCCc1ccc(CCC(N)(CO)CO)cc1` [FTY720, 2-amino-2-[2-(4-octylphenyl)ethyl]propane-1,3-diol], the “growth, migration, and invasion of pancreatic cancer cells” value in test [1] was “inhibit”. In addition, the “Bcl-2 mRNA levels” value in test [2] is recorded as “significantly increased”. In addition, the glucose tolerance entry in test [3] is on record as “significantly improved”.
